Laboratory results: patent publication US20030053950A1, “Individualization of therapy with hyperlipidemia agents” (McGill University, priority 2001, published 2003)
pIC50: −log10 of the molar value. Where two headings read alike, the source gives them in different places. Marks after values point to notes of the source that are not given here.

How the values were obtained:
1X-Ab = test: Competitive antigen ELISA, cross-reactivity of 1X-Ab; assay type: binding, rabbit; details: for % Cross-Reaction 1X-Ab: competitive antigen ELISA, 0 = absence of inhibition or inhibition no higher than 40% at 5 × 10^−3 M
Description: (§1) Buffers and water without additives are filtered through millipore filters and kept for 1 week. BSA, antibodies, Tween™ 20 and horse radish peroxidase conjugates are added to these buffers and water just prior to use. Urine samples are usually collected 4 hours after drinking a cup of coffee (instant or brewed with approximately 100 mg of caffeine per cup) and stored at −80° C. The urine samples are diluted 10 times with sodium phosphate buffer (620 mosm, pH 7.50) and are subsequently diluted with water to give concentrations of AAMU and 1X no higher than 3×10^−6 M in the ELISA. All the pipettings are done with an eight-channel pipette, except those of the antibody and sample solutions. Starting with the last well, 100 μL of a carbonate buffer (100 mM, pH 9.6) containing 2.5 μg mL-^1 antibodies are added to each well. After 90 min. at room temperature, the wells are washed three times with […] of TPB: isotonic sodium phosphate buffer (310 mosm, pH 7.50) containing 0.05% Tween™ 20.
(§2) After the initial wash, unoccupied sites are blocked by incubation for 90 min. at room temperature with 100 μL TBP containing 3% BSA. The wells are washed four times with 100 μL TPB. […] The microplate is gently shaken with an orbital shaker at room temperature for 3-4 hours. The wells are washed three times with 100 μL TPB containing 1% BSA and three times with water containing 0.05% Tween™ 20. To the washed plate is added 150 μL of a substrate buffer composed of citric acid (25 mM) and sodium phosphate dibasic buffer (50 mM, pH 5.0) containing 0.06% hydrogen peroxide and 0.04% o-phenylenediamine hydrochloride.
(§3) Buffers and water without additives were filtered through millipore filters and kept for 1 week. BSA, antibodies, Tween™ 20 and horse radish peroxidase conjugates were added to these buffers and water just prior to use. Urine samples were usually collected 4 hours after drinking a cup of coffee (instant or brewed with approximately 100 mg of caffeine per cup) and stored at −80° C. They were diluted 10 times with sodium phosphate buffer (620 mosm, pH 7.50) and were subsequently diluted with water to give concentrations of AAMU and 1X no higher than 3×10^−6 M in the ELISA. All the pipettings were done with an eight-channel pipette, except those of the antibody and sample solutions. Starting with the last well, 100 μL of a carbonate buffer (100 mM, pH 9.6) containing 2.5 μg mL-^1 antibodies was pipetted. After 90 min. at room temperature, the wells were washed three times with 100 μL of TPB: isotonic sodium phosphate buffer (310 mosm, pH 7.50) containing 0.05% Tween™ 20.
(§4) After the initial wash, unoccupied sites were blocked by incubation for 90 min. at room temperature with 100 μL TBP containing 3% BSA. The wells were washed four times with 100 μL TPB. […] The microplate was gently shaken with an orbital shaker at room temperature for 3-4 hours. The wells were washed three times with 100 μL with TPB containing 1% BSA and three times with water containing 0.05% Tween™ 20. To the washed plate was added 150 μL of a substrate buffer composed of citric acid (25 mM) and sodium phosphate dibasic buffer (50 mM, pH 5.0) containing 0.06% hydrogen peroxide and 0.04% o-phenylenediamine hydrochloride. After 20 min. at room temperature with shaking, the reaction was stopped with 50 μL of 2.5 N HCl.
(§5) The cross reactivities of AAMU-Ab and 1X-Ab were tested using a wide variety of caffeine metabolites and structural analogs (Table 2 below).

AAMU-Ab = test: Competitive antigen ELISA, cross-reactivity of AAMU-Ab; assay type: binding, rabbit; details: for % Cross-Reaction AAMU-Ab: competitive antigen ELISA, 0 = absence of inhibition or inhibition no higher than 40% at 5 × 10^−3 M
Description: as §1, §2, §3, §4, §5

[1] = cited from earlier work
[2] = cited from earlier work; remark: listed apart in the source
[3] = cited from earlier work; remark: listed apart in the source

Compound	% Cross-Reaction 1X-Ab (1X-Ab)	% Cross-Reaction AAMU-Ab (AAMU-Ab)	further results
Cn1c(=O)c2c(ncn2C)n(C)c1=O [1,3,7-Trimethyl Xanthine (Caffeine), 1,3,7-Trimethyl Xanthine]	0%	0%	
Cn1c(=O)[nH]c2[nH]c(=O)[nH]c2c1=O [1-Methyluric acid]	11%	0%	
Cn1c(=O)[nH]c(=O)c2[nH]cnc21 [3-Methyl Xanthine]	0%	0%	
O=c1cc[nH]c(=O)[nH]1 [Uracil]	0%	0%	
Nc1ccc(S(=O)(=O)c2ccc(N)cc2)cc1 [dapsone]			adverse reactions to dapsone ([1]; fast acetylators): 17%; adverse reactions to dapsone ([1]; slow acetylators): 46%
Cc1nc2[nH]c(=O)[nH]c(=O)c2[nH]1 [8-Methyl Xanthine]	0%	0%	
COc1ccc2c(c1)[C@]13CCCC[C@@H]1[C@H](C2)N(C)CC3 [Dextromethorphan]			mean performance ±SE ([2]; EMs (extensive metabolizers)): 95±0.5%; mean performance ±SE ([2]; PMs (poor metabolizers)): 86±6%
O=c1[nH]c(=O)c2[nH]cnc2[nH]1 [Xanthine]	0%	0^a %	
Cn1c(=O)[nH]c2[nH]c(=O)n(C)c2c1=O [1,7-Dimethyluric acid]	0%	0%	
CC(=O)Nc1c(N)[nH]c(=O)[nH]c1=O [5-Acetamino-6-amino-uracil]	0%	0.6%	
Nc1nc2nc[nH]c2c(=O)[nH]1 [Guanine]	0%	0%	
O=C(O)c1cccnc1 [niacin, nicotinic acid]			LDL cholesterol reduction ([3]; 1000 to 1500 mg per day): about 15%; reduction of triglyceride levels ([3]; 1000 to 1500 mg per day): up to 30%; LDL cholesterol-lowering effect ([3]; 2000 to 4000 mg per day): ~25%; increase in HDL cholesterol level ([3]; 2000 to 4000 mg per day): up to 30%; reduction of triglyceride levels ([3]; 2000 to 4000 mg per day): up to 50%; effect on lipoproteins ([3]; low dosages (<500 mg per day)): little predictable effect
NC(=O)c1cccnc1 [Nicotinamide]			effect on lipoproteins ([3]; doses similar to those of nicotinic acid): does not have a significant effect on lipoproteins
Cn1c(=O)c2[nH]cnc2n(C)c1=O [1,3-Dimethyl Xanthine (Theophylline), 1,3-Dimethyl Xanthine]	0.2%	0%	
O=c1[nH]cnc2nc[nH]c12 [Hypoxanthine]	0%	0%	
CC(=O)Nc1c(N)n(C)c(=O)[nH]c1=O [5-Acetamino-6-amino-1-methyluracil]	0%	100%	pIC50 (AAMU-Ab; read-out: concentration required for 50% inhibition in the competitive antigen ELISA, AAMU-Ab): 5.82
Cn1cnc2c1c(=O)[nH]c(=O)n2C [3,7-Dimethyl Xanthine (Theobromine), 3,7-Dimethyl Xanthine]	0%	0%	
CC(=O)Nc1c(N)n(C)c(=O)n(C)c1=O [5-Acetamino-6-amino-1,3-dimethyluracil]	0%	0%	
Cn1c(=O)[nH]c2nc[nH]c2c1=O [1-Methyl Xanthine (1X), 1-Methyl Xanthine]	100%	0%	pIC50 (1X-Ab; read-out: concentration required for 50% inhibition in the competitive antigen ELISA, 1X-Ab): 5.00
O=c1[nH]c(=O)c2[nH]c(=O)[nH]c2[nH]1 [Uric acid]	0%	0%	
Cn1cnc2[nH]c(=O)[nH]c(=O)c21 [7-Methyl Xanthine]	0%	0%	
Cn1c(=O)[nH]c2ncn(C)c2c1=O [1,7-Dimethyl Xanthine (Paraxanthine), 1,7-Dimethyl Xanthine]	0.5%	0%	
